Legend:
[1] = Renal toxicity in xanthine and potassium oxonate-induced acute hyperuricemia Kunming mouse model assessed as blood urea nitrogen level at 10 mg/kg, po measured after 3 hrs; type: organism-based; conditions: in vivo
[2] = Renal toxicity in xanthine and potassium oxonate-induced acute hyperuricemia Kunming mouse model assessed as serum creatinine level at 10 mg/kg, po measured after 3 hrs; type: organism-based; conditions: in vivo
[3] = AUC (0 to infinity) in Sprague-Dawley rat at 5 mg/kg, iv by LC-MS/MS analysis; type: ADME, organism-based; design: time infinity, dose 5 mg/kg, route iv; conditions: in vivo
[4] = AUC (0 to infinity) in Sprague-Dawley rat at 5 mg/kg, po by LC-MS/MS analysis; type: ADME, organism-based; design: time infinity, dose 5 mg/kg, route po; conditions: in vivo
[5] = target: T1, Solute carrier family 22 member 6 (Homo sapiens, UniProt Q4U2R8); test: Inhibition of OAT1 (unknown origin) expressed in HEK293 cells assessed as inhibition of 6-CFL uptake preincubated for 30 mins followed by incubation with 6-CFL and measured after 15 mins by fluorescence based analysis; type: toxicity, cell-based
T1 sequence (Q4U2R8 whole entry): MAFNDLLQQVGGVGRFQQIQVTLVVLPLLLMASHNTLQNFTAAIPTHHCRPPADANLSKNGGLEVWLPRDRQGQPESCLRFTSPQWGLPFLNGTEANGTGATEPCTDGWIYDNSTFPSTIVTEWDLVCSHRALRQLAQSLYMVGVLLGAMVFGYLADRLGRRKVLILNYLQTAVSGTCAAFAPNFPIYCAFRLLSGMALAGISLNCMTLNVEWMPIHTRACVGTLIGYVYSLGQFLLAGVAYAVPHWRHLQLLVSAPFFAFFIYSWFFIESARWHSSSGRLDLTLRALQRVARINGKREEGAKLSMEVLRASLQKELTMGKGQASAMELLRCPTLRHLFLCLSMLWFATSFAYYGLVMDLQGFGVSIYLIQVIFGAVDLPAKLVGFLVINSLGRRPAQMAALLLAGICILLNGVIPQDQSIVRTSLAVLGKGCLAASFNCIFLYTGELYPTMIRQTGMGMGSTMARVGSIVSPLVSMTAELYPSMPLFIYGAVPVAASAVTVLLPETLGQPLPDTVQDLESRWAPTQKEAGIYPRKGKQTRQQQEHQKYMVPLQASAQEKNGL

Mus musculus [6] = test: Anti-hyperuricemic activity against xanthine and potassium oxonate-induced acute hyperuricemia Kunming mouse model assessed as serum uric acid concentration at 10 mg/kg, po measured after 3 hrs (reference value: 846.22 uM); type: functional
[7] = Inhibition of URAT1 S35N mutant (unknown origin)-mediated 14C-uric acid uptake expressed in HEK293 cells using 14C-uric acid as substrate preincubated for 30 mins followed by substrate addition and measured after 15 mins by liquid scintillation counting analysis; type: cell-based; conditions: Homo sapiens
[8] = target: T2, Solute carrier family 22 member 12 (Homo sapiens, UniProt Q96S37); test: Inhibition of URAT1 (unknown origin)-mediated 14C-uric acid uptake expressed in HEK293 cells using 14C-uric acid as substrate preincubated for 30 mins followed by substrate addition and measured after 15 mins by liquid scintillation counting analysis; type: cell-based
T2 sequence (Q96S37 whole entry): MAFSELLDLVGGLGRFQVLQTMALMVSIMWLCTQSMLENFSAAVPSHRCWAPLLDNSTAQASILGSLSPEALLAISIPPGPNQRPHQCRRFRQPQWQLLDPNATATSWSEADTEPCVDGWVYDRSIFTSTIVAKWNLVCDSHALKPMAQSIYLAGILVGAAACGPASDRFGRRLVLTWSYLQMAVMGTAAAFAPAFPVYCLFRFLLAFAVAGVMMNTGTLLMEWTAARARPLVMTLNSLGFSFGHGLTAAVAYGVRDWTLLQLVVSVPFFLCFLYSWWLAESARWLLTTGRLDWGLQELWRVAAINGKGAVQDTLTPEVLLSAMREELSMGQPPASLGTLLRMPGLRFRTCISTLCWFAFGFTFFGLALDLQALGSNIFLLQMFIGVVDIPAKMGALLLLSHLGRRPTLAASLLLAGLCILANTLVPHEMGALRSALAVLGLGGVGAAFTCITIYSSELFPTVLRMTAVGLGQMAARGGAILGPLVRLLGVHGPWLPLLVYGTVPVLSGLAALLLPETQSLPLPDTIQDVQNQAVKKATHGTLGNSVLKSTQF

Mus musculus [9] = test: Anti-hyperuricemic activity against xanthine and potassium oxonate-induced acute hyperuricemia Kunming mouse model assessed as increase in urine uric acid concentration at 10 mg/kg, po measured for 24 hrs; type: functional
[10] = Half life in Sprague-Dawley rat at 5 mg/kg, po measured upto 36 hrs by LC-MS/MS analysis; type: ADME, organism-based; conditions: in vivo
[11] = Cytotoxicity against human HK-2 cells assessed as reduction in cell viability incubated for 24 hrs by MTT assay; type: toxicity, cell-based
[12] = MRT (0 to infinity) in Sprague-Dawley rat at 5 mg/kg, iv by LC-MS/MS analysis; type: ADME, organism-based; conditions: in vivo
[13] = Tmax in Sprague-Dawley rat at 5 mg/kg, iv measured upto 36 hrs by LC-MS/MS analysis; type: ADME, organism-based; conditions: in vivo
[14] = Inhibition of URAT1 F365Y mutant (unknown origin)-mediated 14C-uric acid uptake expressed in HEK293 cells using 14C-uric acid as substrate preincubated for 30 mins followed by substrate addition and measured after 15 mins by liquid scintillation counting analysis; type: cell-based; conditions: Homo sapiens
[15] = Cmax in Sprague-Dawley rat at 5 mg/kg, iv measured upto 36 hrs by LC-MS/MS analysis; type: ADME, organism-based; design: time < 36 hrs, dose 5 mg/kg, route iv; conditions: in vivo
[16] = Inhibition of URAT1 R487K mutant (unknown origin)-mediated 14C-uric acid uptake expressed in HEK293 cells using 14C-uric acid as substrate preincubated for 30 mins followed by substrate addition and measured after 15 mins by liquid scintillation counting analysis; type: cell-based; conditions: Homo sapiens
[17] = target: T3, Solute carrier family 2, facilitated glucose transporter member 9 (Homo sapiens, UniProt Q9NRM0); test: Inhibition of GLUT9 (unknown origin) expressed in HEK293T cells assessed as inhibition of uric acid-induced current by whole cell patch clamp technique; type: cell-based
T3 sequence (Q9NRM0 whole entry): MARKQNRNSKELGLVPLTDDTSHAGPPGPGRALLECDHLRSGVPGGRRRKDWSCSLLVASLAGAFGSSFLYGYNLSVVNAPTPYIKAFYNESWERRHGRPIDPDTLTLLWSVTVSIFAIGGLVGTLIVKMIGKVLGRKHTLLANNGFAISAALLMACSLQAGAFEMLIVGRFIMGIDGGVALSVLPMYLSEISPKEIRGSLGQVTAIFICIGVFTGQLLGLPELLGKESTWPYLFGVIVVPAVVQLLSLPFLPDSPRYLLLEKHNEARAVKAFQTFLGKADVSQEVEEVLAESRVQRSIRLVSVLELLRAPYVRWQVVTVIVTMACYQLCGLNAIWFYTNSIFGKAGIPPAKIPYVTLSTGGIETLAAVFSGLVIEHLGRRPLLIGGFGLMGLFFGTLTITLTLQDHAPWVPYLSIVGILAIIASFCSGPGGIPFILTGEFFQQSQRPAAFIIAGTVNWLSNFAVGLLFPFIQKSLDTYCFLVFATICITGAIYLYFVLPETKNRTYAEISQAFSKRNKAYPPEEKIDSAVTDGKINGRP

[18] = Cmax in Sprague-Dawley rat at 5 mg/kg, po measured upto 36 hrs by LC-MS/MS analysis; type: ADME, organism-based; design: time < 36 hrs, dose 5 mg/kg, route po; conditions: in vivo
[19] = Half life in Sprague-Dawley rat at 5 mg/kg, iv measured upto 36 hrs by LC-MS/MS analysis; type: ADME, organism-based; conditions: in vivo

AUC(0-inf) [3]: 18500 ng·h/mL
AUC(0-inf) [4]: 5660 ng·h/mL
IC50 [7]: 3.14 µM
IC50 [8]: 0.24 µM
half-life [10]: 5.14 h
MRT inf [12]: 4.8 h
Tmax [13]: 0.17 h
IC50 [14]: 1.57 µM
Cmax [15]: 11100 ng/mL
IC50 [16]: 1.89 µM
IC50 [17]: 9.37 µM
Cmax [18]: 7650 ng/mL
half-life [19]: 4.19 h
SMILES: N#Cc1ccc(Nc2cnccc2SCc2ccccc2C(=O)[O-])c2ccccc12.[Na+]
Activity [1]: Non-Toxic
Activity [2]: Non-Toxic
IC50 [5]: 32.1 µM
Activity (Mus musculus [6]): 645.8 µM
Activity (Mus musculus [9]): 2444.24 µM
IC50 at 24 h [11]: 208 µM

— ChEMBL document CHEMBL5154691, “Discovery of novel verinurad analogs as dual inhibitors of URAT1 and GLUT9 with improved Druggability for the treatment of hyperuricemia” (Eur J Med Chem, 2022)
